# Measurements taken from patent US11033572B2, “Molecular adjuvants for enhanced cytosolic delivery of active agents” (Universiteit Gent, priority 2017, dated 2021).
# What was measured:
# Type in all cases: cell-based
# H1299_WT cells [1] = experiment: Release of FITC-dextrans into the cytosol (confocal microscopy); conditions: 40 μM, 20 h, 10 kDa FITC-dextran; listed as DL
# Experimental: To visualize the FITC-dextran release, a 1 mg/mL dispersion of 10 kDa FITC-dextrans (Sigma-Aldrich, Belgium) in complete cell medium was added during 1 hour at 37° C. in a humidified atmosphere containing 5% CO2. To assess oligonucleotide escape, the NGs were first loaded with 100 nM Alexa Fluor 647-labeled oligonucleotides (21-mer) (Eurogentec, Belgium) according to the procedure described for siRNA complexation. Of note, these oligonucleotides transfer to the nucleus upon release into the cytosol (Rehman et al., ACS Nano, 2013). Following four hours of NG transfection or 1 h incubation with FITC-dextrans, the cells were washed with PBS and received 1.5 mL fresh cell medium with or without 10, 20 or 40 μM DL. After an additional incubation period of 20 hours, the cell medium was removed and nuclei were labeled with Hoechst (Molecular Probes™, Belgium) in cell medium during 15 minutes at 37° C. […]
# The samples were imaged using a laser scanning confocal microscope (LSCM, C1si, Nikon) and a 60× oil immersion Plan Apo objective (Nikon, Belgium). […] During data analysis with the ImageJ image processing software (NIH) both the total cell number and amount of cells with a diffuse FITC-dextran labeling or oligonucleotide-positive nuclei were counted. […]
# H1299_WT cells [2] = experiment: Phospholipidosis detection with LipidTOX Red; conditions: 20 h incubation
# Experimental: H1299_WT cells were seeded and allowed to settle overnight as detailed previously. Next, the cells were incubated with a mixture of a 1/1000 dilution of the LipidTOX™ red phospholipidosis detection reagent (Thermo Fisher Scientific, USA) and the desired CAD in complete cell medium. Upon 20 hour incubation, the cells were fixed with 4% PFA and stored at 4° C. covered in Vectashield antifade mounting medium containing DAPI. Imaging occurred with a LSCM and a 100× oil immersion objective. DAPI and the LipidTOX™ red phospholipidosis dye were respectively excited with the 408 nm and 561 nm laser lines and the signal intensity was determined with Image J in minimum 30 cells from 5 images per condition.
# H1299_WT cells [3] = experiment: Sphingomyelin detection with lysenin; conditions: after siNG transfection
# Experimental: Cell seeding, transfection and DL treatment of the H1299_WT cells occurred similar to the previous microscopy experiments. The subsequent staining procedure was carried out at room temperature. Following one washing step with PBS, the cells were fixed with 4% PFA during 15 minutes. The fixative was removed, the cells washed twice with PBS and permeabilized with 0.5% Tween 20 for 15 minutes. Next, the cells were washed twice with blocking buffer (BB, 2 wt % bovine serum albumin (Amresco, USA) in PBS) and kept in BB during 30 minutes. Upon removal, the cells were incubated 2 hours with a 1 μg/mL lysenin (Sigma-Aldrich, Belgium) solution in BB. Next the cells were washed twice with PBS before incubating 1 hour with the lysenin rabbit anti-human antiserum (1:500 in BB, Peptanova, Germany). Before and after the subsequent 1 hour incubation period with the secondary goat anti-rabbit Alexa Fluor 647 antibody (1:500 in BB, Molecular Probes™, Belgium), cells were washed with BB. Finally the cells were washed with PBS and stored at 4° C. covered with Vectashield containing DAPI. Using the 408 nm and 633 nm laser lines, the nuclei and sphingomyelin were excited respectively and detected with a LSCM and a 60× oil immersion objective.
smiles,measurement,setting,value
"Clc1ccc2c(c1)CCc1cccnc1C2=C1CCNCC1 [(3) Desloratadine, Desloratadine]",Cells with diffuse FITC-dextran labeling,H1299_WT cells [1],26%
same,LipidTOX Red phospholipid signal,H1299_WT cells [2],upregulates the presence of phospholipids in a concentration dependent fashion
same,sphingomyelin (lysenin) signal,H1299_WT cells [3],signal increases as a function of the desloratadine concentration
